# Assays:
# Experiment in all cases: Kinobeads competition binding, HL60 cell lysate
# Details in all cases: 10 μM free compound
# ALK4 = biological target: T1, ALK4 (Homo sapiens, UniProt P36896)
# T1 construct: endogenous in cells; host or cells: HL60 cells
# Procedure: (§1) To one aliquot of cell lysate 10 μM of the free compound (FIG. 3, CZC31326) was added and allowed to bind to proteins in the lysate. Then the affinity matrix with the immobilized compound (Example 1) was added to capture proteins that were not interacting with the previously added free compound. Beads were separated from the lysate and bead bound proteins were eluted in SDS sample buffer and subsequently separated by SDS-Polyacrylamide gel electrophoresis (FIG. 4). Suitable gel bands were cut out and subjected to in-gel proteolytic digestion with trypsin. The second lysate aliquot was processed identically, however no free compound was added (DMSO solvent control). Peptides originating from samples 1 and 2 were labeled with iTRAQ reagents (iTRAQ 114 and iTRAQ 117) and the combined samples were analyzed with a nano-flow liquid chromatography system coupled online to a tandem mass spectrometer (LC-MS/MS) experiment followed by iTRAQ reporter ion quantification in the MS/MS spectra (Ross et al., 2004. Mol. Cell. Proteomics 3(12):1154-1169). Further experimental protocols can be found in WO2006/134056 and a previous publication (Bantscheff et al., 2007. Nature Biotechnology 25, 1035-1044). Sepharose-beads with the immobilized compound (100 μl beads per pull-down experiment) were equilibrated in lysis buffer and incubated with a cell lysate sample containing 50 mg of protein on an end-over-end shaker (Roto Shake Genie, Scientific Industries Inc.) for 2 hours at 4° C. Beads were collected, transferred to Mobicol-columns (MoBiTech 10055) and washed with 10 ml lysis buffer containing 0.4% NP40 detergent, followed by 5 ml lysis buffer containing 0.2% detergent. To elute bound proteins, 60 μl 2×SDS sample buffer was added to the column. The column was incubated for 30 minutes at 50° C. and the eluate was transferred to a siliconized microfuge tube by centrifugation. Proteins were then alkylated with 108 mM iodoacetamid. Proteins were then separated by SDS-Polyacrylamide electrophoresis (SDS-PAGE). The peptide extracts of samples treated with 10 μM of free compound (CZC31326) and the solvent control (0.5% DMSO) were treated with different variants of the isobaric tagging reagent (iTRAQ Reagents Multiplex Kit, part number 4352135, Applied Biosystems, Foster City, Calif., USA). The iTRAQ reagents are a set of multiplexed, amine-specific, stable isotope reagents that can label peptides on amino groups in up to four different biological samples enabling simultaneous identification and quantitation of peptides. The iTRAQ reagents were used according to instructions provided by the manufacturer. The samples were resuspended in 10 μl 50 mM TEAB solution, pH 8.5 and 10 μl ethanol were added. The iTRAQ reagent was dissolved in 120 μl ethanol and 10 μl of reagent solution were added to the sample. The labeling reaction was performed at room temperature for one hour on a horizontal shaker and stopped by adding 5 μl of 100 mM TEAB and 100 mM glycine in water. The two labeled sampled were then combined, dried in a vacuum centrifuge and resuspended in 10 μl of 0.1% formic acid in water. Relative protein quantitation was performed using peak areas of iTRAQ reporter ion signals essentially as described in an earlier publication (Bantscheff et al., 2007. Nature Biotechnology 25, 1035-1044).
# CDK10 = biological target: T2, CDK10 (Homo sapiens, UniProt Q15131)
# T2 construct: endogenous in cells; host or cells: HL60 cells
# T2 sequence (Q15131 whole entry): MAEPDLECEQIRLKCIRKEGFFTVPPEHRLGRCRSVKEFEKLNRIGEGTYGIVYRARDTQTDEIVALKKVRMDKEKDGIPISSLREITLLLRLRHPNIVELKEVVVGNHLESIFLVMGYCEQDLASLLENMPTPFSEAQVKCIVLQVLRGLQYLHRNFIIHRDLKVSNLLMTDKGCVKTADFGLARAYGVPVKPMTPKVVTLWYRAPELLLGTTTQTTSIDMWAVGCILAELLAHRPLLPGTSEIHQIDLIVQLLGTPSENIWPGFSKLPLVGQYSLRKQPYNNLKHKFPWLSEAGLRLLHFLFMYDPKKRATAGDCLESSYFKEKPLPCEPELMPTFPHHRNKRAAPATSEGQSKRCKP
# Procedure: as §1
# CLK1 = biological target: T3, CLK1 (Homo sapiens, UniProt P49759)
# T3 construct: endogenous in cells; host or cells: HL60 cells
# T3 sequence (P49759 whole entry): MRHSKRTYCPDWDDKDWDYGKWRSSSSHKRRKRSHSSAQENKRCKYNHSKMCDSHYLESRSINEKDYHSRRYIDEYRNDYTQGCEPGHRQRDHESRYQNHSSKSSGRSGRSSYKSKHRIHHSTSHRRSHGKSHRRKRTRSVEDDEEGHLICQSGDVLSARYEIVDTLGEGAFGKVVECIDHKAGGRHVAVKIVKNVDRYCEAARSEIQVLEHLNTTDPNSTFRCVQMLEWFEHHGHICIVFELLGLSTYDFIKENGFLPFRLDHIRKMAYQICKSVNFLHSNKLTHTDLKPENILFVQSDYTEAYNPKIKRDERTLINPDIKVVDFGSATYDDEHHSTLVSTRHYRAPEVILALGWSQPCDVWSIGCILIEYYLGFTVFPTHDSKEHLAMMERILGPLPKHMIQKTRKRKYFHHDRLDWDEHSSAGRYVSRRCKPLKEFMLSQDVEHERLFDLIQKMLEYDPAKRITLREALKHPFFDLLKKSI
# Procedure: as §1
# CRK7 = biological target: T4, CRK7 (Homo sapiens, UniProt Q9NYV4)
# T4 construct: endogenous in cells; host or cells: HL60 (DSMZ ACC3)
# T4 sequence (Q9NYV4 whole entry): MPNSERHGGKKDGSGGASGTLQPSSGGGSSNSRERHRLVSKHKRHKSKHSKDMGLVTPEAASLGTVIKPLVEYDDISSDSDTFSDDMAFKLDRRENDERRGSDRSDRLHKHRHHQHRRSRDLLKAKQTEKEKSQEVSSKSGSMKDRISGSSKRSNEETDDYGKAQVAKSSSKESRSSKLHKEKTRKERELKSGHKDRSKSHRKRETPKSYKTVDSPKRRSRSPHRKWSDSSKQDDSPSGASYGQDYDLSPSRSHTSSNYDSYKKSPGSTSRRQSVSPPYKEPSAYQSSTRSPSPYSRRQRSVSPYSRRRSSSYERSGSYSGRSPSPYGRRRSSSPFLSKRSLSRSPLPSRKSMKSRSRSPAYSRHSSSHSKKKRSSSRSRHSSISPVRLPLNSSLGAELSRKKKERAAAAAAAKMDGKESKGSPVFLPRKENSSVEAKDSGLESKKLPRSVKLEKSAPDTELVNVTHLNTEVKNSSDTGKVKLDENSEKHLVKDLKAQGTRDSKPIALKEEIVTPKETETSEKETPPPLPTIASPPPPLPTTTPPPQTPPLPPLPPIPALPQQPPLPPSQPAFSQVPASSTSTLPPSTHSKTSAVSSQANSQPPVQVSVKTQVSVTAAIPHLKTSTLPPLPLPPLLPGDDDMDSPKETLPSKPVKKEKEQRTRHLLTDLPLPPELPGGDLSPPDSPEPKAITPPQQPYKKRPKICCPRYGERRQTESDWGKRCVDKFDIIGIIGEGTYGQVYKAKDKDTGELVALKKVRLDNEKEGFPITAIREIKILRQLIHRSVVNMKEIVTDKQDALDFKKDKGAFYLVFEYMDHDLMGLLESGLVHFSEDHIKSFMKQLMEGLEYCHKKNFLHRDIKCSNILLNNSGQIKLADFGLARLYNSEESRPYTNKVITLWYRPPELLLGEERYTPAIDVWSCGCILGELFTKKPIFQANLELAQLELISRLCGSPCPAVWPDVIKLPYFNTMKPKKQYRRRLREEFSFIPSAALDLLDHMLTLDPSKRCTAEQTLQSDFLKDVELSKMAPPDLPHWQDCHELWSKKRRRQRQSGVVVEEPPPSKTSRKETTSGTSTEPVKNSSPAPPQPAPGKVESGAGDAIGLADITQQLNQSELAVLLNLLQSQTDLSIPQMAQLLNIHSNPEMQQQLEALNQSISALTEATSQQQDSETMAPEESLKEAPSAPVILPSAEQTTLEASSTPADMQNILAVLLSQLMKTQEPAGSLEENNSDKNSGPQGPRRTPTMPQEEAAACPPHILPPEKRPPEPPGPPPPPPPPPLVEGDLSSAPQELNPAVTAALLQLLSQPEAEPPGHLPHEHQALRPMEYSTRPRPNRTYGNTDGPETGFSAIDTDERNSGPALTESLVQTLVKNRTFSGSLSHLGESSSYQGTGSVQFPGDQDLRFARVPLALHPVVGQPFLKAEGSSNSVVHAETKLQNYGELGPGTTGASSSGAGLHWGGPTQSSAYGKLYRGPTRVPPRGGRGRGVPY
# T4 sequence (O75909 whole entry partner): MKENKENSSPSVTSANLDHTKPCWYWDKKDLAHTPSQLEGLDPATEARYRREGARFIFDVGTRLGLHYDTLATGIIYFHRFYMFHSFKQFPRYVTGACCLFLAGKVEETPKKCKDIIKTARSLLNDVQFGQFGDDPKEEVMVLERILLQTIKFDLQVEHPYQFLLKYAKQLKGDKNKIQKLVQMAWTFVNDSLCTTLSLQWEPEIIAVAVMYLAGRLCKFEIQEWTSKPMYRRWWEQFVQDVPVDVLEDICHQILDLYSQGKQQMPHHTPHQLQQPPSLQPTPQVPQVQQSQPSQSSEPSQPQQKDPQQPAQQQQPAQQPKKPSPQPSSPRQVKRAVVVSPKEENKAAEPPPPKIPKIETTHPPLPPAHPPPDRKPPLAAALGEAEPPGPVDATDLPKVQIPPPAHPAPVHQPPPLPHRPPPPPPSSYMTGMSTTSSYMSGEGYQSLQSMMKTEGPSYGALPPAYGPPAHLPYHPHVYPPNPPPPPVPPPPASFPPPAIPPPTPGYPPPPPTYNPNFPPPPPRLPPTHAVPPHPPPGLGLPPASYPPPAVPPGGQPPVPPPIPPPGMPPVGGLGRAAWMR
# Procedure: as §1
# KHS1 = biological target: T5, KHS1 (Homo sapiens, UniProt Q9Y4K4)
# T5 construct: Identified kinases with CZC31326 from HL60 lysate; endogenous in cells; host or cells: HL60
# T5 sequence (Q9Y4K4 whole entry): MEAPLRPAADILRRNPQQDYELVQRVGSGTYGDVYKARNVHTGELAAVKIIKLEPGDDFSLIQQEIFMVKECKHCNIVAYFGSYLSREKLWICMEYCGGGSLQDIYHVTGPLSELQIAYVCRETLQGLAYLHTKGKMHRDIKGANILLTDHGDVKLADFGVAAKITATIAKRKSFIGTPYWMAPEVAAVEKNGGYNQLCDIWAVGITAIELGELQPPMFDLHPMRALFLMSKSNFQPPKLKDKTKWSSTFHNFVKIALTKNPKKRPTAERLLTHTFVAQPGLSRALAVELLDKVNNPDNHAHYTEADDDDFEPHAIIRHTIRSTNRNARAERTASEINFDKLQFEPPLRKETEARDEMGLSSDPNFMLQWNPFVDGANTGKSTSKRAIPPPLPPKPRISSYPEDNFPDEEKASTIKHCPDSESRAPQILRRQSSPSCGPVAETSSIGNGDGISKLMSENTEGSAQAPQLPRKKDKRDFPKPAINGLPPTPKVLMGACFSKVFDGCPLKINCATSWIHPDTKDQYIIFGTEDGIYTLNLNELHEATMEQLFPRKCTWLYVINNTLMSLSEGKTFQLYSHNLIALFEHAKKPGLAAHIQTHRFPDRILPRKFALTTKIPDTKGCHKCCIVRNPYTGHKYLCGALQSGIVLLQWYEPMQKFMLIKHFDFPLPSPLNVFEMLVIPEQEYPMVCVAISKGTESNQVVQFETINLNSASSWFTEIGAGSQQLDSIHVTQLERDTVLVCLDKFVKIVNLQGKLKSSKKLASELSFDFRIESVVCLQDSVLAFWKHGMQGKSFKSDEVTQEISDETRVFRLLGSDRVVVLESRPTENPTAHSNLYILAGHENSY
# Procedure: as §1
# MSK1 = biological target: T6, MSK1 (Homo sapiens, UniProt O75582)
# T6 construct: endogenous in cells; host or cells: HL60
# Procedure: as §1
# MST4 = biological target: T7, MST4 (Homo sapiens, UniProt Q9P289)
# T7 construct: endogenous in cells; host or cells: HL60
# T7 sequence (Q9P289 whole entry): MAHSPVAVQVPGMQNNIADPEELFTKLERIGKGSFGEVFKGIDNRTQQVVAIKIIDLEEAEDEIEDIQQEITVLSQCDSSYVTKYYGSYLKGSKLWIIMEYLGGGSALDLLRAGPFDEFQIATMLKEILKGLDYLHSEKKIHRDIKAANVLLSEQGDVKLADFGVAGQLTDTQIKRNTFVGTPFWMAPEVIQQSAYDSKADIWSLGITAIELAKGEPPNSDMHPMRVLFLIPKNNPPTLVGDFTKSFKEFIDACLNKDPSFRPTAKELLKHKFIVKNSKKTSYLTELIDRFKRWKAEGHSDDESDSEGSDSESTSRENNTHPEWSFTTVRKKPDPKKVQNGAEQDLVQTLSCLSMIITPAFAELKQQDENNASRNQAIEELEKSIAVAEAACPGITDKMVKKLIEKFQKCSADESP
# Procedure: as §1
# TEC = biological target: T8, TEC (Homo sapiens, UniProt P42680)
# T8 sequence (P42680 1-631): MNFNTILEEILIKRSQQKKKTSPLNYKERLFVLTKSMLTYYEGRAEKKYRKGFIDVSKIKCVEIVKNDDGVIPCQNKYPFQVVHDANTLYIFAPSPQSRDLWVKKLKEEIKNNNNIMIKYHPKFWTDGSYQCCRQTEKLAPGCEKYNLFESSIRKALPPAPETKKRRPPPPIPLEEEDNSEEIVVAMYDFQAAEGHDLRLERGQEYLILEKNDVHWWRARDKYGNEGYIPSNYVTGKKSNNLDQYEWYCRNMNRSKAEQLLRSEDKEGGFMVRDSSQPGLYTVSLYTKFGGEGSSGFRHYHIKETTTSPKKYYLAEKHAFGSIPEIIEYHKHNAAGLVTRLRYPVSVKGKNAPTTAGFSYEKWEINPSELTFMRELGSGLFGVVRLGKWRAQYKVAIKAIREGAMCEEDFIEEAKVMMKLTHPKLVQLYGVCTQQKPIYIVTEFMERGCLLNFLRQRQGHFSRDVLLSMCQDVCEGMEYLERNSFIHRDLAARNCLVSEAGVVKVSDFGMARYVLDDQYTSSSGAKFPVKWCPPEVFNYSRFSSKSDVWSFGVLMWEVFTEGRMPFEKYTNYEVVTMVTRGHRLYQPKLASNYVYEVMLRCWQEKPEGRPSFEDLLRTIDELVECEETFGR
# Procedure: as §1
# T1 sequence (P36896 24-505): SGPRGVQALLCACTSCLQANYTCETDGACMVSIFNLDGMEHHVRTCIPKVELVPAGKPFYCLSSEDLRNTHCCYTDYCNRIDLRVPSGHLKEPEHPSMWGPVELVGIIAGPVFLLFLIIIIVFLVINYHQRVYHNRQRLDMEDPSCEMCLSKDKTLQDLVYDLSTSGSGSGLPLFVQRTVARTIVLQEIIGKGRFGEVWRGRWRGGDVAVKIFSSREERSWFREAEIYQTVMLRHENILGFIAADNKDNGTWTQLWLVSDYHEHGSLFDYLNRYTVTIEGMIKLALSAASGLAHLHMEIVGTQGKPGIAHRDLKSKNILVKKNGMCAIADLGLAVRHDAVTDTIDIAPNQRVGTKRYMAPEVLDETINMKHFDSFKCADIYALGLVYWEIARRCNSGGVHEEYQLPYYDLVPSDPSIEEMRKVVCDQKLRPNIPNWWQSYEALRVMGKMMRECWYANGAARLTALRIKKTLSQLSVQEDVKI
compound,measurement,setting,value
"CS(=O)(=O)Nc1ccccc1Nc1nc(Nc2cccc(OCCN)c2)ncc1Cl [CZC31326, N-(2-(2-(3-(2-aminoethoxy)phenylamino)-5-chloropyrimidin-4-ylamino)phenyl)methanesulfonamide]",inhibition at 10 µM,ALK4,94.5%
same,inhibition at 10 µM,CDK10,96.7%
same,inhibition at 10 µM,CLK1,97.4%
same,Competition %,CRK7,92.1%
same,inhibition at 10 µM,KHS1,93.2%
same,inhibition at 10 µM,MSK1,94.7%
same,inhibition at 10 µM,MST4,96.1%
same,inhibition at 10 µM,TEC,97%

# Source: patent US20120270237A9, “METHODS FOR THE IDENTIFICATION OF KINASE INTERACTING MOLECULES AND FOR THE PURIFICATION OF KINASE PROTEINS” (Cellzone AG, priority 2009, published 2012)
